Experiments:
Histone deacetylase = assay: Inhibition of HDAC in human HeLa cell extract using Boc-Lys (acetyl)-AMC as substrate incubated for 10 mins prior to substrate addition measured after 30 mins by fluorescence assay; type: protein assay
[1] = Antiproliferative activity against human U266 cells after 48 hrs by MTT assay; type: functional, cell-based; conditions: U-266, 48 h
Histone deacetylase 2 = Histone deacetylase 2 (Homo sapiens, UniProt Q92769); assay: Inhibition of HDAC2 (unknown origin)
[2] = biological target: T1, Protein deacetylase HDAC6 (Homo sapiens, UniProt Q9UBN7); assay: Inhibition of HDAC6 (unknown origin)
T1 sequence (Q9UBN7 whole entry): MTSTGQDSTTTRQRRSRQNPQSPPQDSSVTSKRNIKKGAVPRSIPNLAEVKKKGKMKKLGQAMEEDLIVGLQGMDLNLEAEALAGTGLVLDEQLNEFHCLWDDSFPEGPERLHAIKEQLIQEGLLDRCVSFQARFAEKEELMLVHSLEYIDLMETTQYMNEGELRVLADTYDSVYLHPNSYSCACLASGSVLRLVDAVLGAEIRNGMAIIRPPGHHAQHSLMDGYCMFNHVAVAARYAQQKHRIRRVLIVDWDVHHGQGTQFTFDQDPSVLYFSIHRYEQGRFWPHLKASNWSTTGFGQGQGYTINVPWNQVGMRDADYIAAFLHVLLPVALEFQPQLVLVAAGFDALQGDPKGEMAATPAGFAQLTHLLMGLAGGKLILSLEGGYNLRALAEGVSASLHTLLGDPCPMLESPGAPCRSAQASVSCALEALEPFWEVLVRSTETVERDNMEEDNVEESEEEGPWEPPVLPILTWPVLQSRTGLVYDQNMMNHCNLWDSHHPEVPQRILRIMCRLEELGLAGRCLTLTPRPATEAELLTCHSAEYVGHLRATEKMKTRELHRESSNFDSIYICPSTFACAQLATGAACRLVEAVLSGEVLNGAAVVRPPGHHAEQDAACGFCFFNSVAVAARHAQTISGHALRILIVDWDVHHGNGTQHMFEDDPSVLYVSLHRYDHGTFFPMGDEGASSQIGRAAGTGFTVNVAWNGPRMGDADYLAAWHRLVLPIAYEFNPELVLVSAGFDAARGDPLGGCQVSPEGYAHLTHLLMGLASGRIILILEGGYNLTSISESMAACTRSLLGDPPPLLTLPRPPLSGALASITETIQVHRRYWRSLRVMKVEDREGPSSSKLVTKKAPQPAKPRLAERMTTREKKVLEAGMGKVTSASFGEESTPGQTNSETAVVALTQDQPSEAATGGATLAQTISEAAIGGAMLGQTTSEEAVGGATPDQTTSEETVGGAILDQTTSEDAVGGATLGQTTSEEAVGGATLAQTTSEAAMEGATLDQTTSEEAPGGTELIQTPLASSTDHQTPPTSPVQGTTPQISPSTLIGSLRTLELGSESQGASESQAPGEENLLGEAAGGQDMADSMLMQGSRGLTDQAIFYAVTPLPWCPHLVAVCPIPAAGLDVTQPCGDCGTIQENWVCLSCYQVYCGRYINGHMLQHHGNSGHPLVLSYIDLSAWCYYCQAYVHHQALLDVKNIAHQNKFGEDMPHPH

Histone deacetylase 1 = Histone deacetylase 1 (Homo sapiens, UniProt Q13547); assay: Inhibition of HDAC1 (unknown origin)
[3] = Antiproliferative activity against human HCT116 cells after 48 hrs by MTT assay; type: functional, cell-based; conditions: HCT-116, 48 h
Mus musculus [4] = assay: Toxicity in athymic nude mouse xenografted with human U937 cells assessed as toxic sign in spleen at 120 mg/kg/day, po after 16 days; type: organism-based, U-937; design: route oral; conditions: in vivo, 384 h
[5] = Antiproliferative activity against human KG1 cells after 48 hrs by MTT assay; type: functional, cell-based; conditions: KG-1, 48 h
HEL = assay: Antiproliferative activity against human HEL cells after 48 hrs by MTT assay; type: functional, cell-based
U-937 [6] = assay: Induction of apoptosis in human U937 cells assessed as early apoptotic cells at 1.5 uM after 24 hrs by annexin-V/propidium iodide staining-based flow cytometry (reference value: 3.81%); type: functional
U-937 [7] = assay: Induction of apoptosis in human U937 cells assessed as apoptotic cells at 1.5 uM after 24 hrs by annexin-V/propidium iodide staining-based flow cytometry; type: functional
K562 = assay: Antiproliferative activity against human K562 cells after 48 hrs by MTT assay; type: functional, cell-based; conditions: K562, 48 h
[8] = Antiproliferative activity against human HL60 cells after 48 hrs by MTT assay; type: functional, cell-based; conditions: HL-60, 48 h
U-937 [9] = assay: Induction of apoptosis in human U937 cells assessed as late apoptotic cells at 1.5 uM after 24 hrs by annexin-V/propidium iodide staining-based flow cytometry (reference value: 2.77%); type: functional
MDA-MB-231 = assay: Antiproliferative activity against human MDA-MB-231 cells after 48 hrs by MTT assay; type: functional, cell-based; conditions: MDA-MB-231, 48 h
[10] = Antiproliferative activity against human PC3 cells after 48 hrs by MTT assay; type: functional, cell-based; conditions: PC-3, 48 h
A549 = assay: Antiproliferative activity against human A549 cells after 48 hrs by MTT assay; type: functional, cell-based; conditions: A549, 48 h
U-937 [11] = assay: Induction of apoptosis in human U937 cells assessed as viable cells at 1.5 uM after 24 hrs by annexin-V/propidium iodide staining-based flow cytometry (reference value: 92.47%); type: functional
[12] = Antiproliferative activity against human U937 cells after 48 hrs by MTT assay; type: functional, cell-based; conditions: U-937, 48 h
Mus musculus [13] = assay: Toxicity in athymic nude mouse xenografted with human U937 cells assessed as weight loss at 120 mg/kg/day, po after 16 days; type: organism-based, U-937; design: route oral; conditions: in vivo, 384 h
Histone deacetylase 3 = Histone deacetylase 3 (Homo sapiens, UniProt O15379); assay: Inhibition of HDAC3 (unknown origin)
MCF7 = assay: Antiproliferative activity against human MCF7 cells after 48 hrs by MTT assay; type: functional, cell-based; conditions: MCF7, 48 h
[14] = Antitumor activity against human U937 cells xenografted in athymic nude mouse at 120 mg/kg/day, po after 16 days relative to control; type: functional, U-937
U-937 [15] = assay: Induction of apoptosis in human U937 cells assessed as dead cells at 1.5 uM after 24 hrs by annexin-V/propidium iodide staining-based flow cytometry (reference value: 0.95%); type: functional
Mus musculus [16] = assay: Toxicity in athymic nude mouse xenografted with human U937 cells assessed as toxic sign in liver at 120 mg/kg/day, po after 16 days; type: organism-based, U-937; design: route oral; conditions: in vivo, 384 h
[17] = Antitumor activity against human U937 cells xenografted in athymic nude mouse assessed as tumor growth inhibition at 120 mg/kg/day, po after 16 days; type: functional; conditions: U-937, 384 h, read-out: TGI
Histone deacetylase 11 = biological target: T2, Histone deacetylase 11 (Homo sapiens, UniProt Q96DB2); assay: Inhibition of HDAC11 (unknown origin)
T2 sequence (Q96DB2 whole entry): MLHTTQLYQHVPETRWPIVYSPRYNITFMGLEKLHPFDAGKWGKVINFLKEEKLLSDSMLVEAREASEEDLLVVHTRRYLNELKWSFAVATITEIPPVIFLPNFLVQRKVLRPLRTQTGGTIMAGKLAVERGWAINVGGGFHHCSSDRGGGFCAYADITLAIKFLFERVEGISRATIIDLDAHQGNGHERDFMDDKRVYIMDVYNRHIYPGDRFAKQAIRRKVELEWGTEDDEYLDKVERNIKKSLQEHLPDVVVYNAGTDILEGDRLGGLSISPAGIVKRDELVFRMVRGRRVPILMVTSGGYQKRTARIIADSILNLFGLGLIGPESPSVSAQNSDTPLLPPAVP

Histone deacetylase 8 = biological target: T3, Histone deacetylase 8 (Homo sapiens, UniProt Q9BY41); assay: Inhibition of HDAC8 (unknown origin)
T3 sequence (Q9BY41 whole entry): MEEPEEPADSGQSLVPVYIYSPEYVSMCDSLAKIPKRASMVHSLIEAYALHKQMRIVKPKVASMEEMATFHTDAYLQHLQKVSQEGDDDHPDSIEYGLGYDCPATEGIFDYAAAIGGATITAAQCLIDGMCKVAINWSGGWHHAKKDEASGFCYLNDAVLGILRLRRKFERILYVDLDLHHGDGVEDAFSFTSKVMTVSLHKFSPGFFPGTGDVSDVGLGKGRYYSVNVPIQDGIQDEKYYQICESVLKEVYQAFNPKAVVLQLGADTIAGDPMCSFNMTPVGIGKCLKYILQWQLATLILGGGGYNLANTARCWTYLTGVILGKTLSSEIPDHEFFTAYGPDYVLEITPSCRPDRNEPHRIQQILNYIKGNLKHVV

Histone deacetylase 4 = Histone deacetylase 4 (Homo sapiens, UniProt P56524); assay: Inhibition of HDAC4 (unknown origin)
Chain of Histone deacetylase 4 (P56524 whole entry): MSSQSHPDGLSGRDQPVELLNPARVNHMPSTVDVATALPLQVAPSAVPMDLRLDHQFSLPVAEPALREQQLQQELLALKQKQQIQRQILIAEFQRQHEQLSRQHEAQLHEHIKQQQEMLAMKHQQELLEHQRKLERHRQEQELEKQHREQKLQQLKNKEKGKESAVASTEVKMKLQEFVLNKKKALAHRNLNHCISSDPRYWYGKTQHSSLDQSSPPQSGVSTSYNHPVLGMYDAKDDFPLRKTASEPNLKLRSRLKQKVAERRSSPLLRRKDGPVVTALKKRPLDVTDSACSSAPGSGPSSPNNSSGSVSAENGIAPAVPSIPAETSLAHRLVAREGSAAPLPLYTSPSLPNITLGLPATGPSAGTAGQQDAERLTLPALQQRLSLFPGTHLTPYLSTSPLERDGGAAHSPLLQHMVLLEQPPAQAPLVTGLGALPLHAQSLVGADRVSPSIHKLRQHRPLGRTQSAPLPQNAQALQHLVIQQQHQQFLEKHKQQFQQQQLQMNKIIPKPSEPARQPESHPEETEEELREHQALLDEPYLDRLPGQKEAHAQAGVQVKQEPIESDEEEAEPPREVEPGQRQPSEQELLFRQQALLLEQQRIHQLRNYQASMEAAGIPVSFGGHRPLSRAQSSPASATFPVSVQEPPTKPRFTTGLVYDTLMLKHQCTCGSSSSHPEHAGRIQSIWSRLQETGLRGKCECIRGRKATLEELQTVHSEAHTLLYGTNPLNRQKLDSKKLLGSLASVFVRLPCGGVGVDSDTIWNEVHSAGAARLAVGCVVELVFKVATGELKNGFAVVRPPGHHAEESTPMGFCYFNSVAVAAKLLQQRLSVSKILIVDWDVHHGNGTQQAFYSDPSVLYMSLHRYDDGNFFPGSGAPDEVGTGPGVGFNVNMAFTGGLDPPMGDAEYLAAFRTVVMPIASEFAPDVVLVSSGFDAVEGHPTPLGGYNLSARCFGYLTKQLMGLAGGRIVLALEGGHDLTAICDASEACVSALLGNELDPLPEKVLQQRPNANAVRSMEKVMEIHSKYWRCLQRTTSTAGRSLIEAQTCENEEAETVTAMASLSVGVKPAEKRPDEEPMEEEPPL

Chain of Histone deacetylase 1 (Q13547 whole entry): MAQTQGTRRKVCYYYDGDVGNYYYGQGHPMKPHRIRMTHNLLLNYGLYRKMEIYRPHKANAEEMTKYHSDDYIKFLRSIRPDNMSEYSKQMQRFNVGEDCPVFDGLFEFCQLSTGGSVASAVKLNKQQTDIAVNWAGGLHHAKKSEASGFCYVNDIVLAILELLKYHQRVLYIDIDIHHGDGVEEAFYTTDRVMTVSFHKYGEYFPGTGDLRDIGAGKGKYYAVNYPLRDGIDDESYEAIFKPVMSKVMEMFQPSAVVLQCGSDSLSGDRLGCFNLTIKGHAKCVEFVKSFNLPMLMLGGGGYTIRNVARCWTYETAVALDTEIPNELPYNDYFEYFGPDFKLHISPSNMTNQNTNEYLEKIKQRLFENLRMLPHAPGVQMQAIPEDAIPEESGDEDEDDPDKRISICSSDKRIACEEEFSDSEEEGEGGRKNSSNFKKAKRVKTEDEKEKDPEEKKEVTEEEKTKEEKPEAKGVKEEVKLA
Chain of Histone deacetylase 2 (Q92769 whole entry): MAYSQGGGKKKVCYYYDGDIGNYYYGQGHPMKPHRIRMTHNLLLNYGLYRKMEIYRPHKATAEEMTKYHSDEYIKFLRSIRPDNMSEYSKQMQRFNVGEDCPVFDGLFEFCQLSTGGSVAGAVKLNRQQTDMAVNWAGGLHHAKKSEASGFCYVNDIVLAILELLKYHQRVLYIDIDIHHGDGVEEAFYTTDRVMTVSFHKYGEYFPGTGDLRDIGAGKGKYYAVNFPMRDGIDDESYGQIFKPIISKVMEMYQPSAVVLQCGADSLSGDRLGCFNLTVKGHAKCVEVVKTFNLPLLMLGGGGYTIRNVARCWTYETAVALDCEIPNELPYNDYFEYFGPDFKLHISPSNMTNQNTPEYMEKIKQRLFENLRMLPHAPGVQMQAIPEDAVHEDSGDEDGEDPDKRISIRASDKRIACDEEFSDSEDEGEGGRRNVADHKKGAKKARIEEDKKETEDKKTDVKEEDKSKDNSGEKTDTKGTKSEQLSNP
Chain of Histone deacetylase 3 (O15379 whole entry): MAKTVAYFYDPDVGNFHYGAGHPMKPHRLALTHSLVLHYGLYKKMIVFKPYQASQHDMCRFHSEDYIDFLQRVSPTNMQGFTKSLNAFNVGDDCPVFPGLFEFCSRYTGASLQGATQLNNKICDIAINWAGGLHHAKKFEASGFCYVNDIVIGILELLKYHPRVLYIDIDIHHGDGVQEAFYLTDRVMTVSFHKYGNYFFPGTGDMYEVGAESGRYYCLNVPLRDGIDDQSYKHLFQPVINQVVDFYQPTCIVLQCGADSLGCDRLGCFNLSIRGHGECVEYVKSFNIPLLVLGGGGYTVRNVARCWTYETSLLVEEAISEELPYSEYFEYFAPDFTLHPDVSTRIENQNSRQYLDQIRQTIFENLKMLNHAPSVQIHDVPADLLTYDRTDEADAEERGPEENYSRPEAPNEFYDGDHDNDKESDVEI

O=C(/C=C/c1cccc(OC[C@H](Cc2c[nH]c3ccccc23)NC(=O)c2ccccc2)c1)NO
IC50 (Histone deacetylase): 421.4 nM | IC50 [1]: 1230 nM

O=C(/C=C/c1cccc(OC[C@H](Cc2c[nH]c3ccccc23)NC(=O)c2ccc(Cl)cc2)c1)NO
IC50 [1]: 1740 nM

CC(C)(C)OC(=O)N[C@H](COc1cccc(/C=C/C(=O)NO)c1)Cc1c[nH]c2ccccc12
IC50 (Histone deacetylase): 917.4 nM | IC50 [1]: 4180 nM

CC(C)(C)OC(=O)NCC(=O)N[C@H](COc1cccc(/C=C/C(=O)NO)c1)Cc1c[nH]c2ccccc12
IC50 (Histone deacetylase): 886.4 nM | IC50 [1]: 8950 nM

CC(NC(=O)OC(C)(C)C)C(=O)N[C@H](COc1cccc(/C=C/C(=O)NO)c1)Cc1c[nH]c2ccccc12 (stereo partly specified)
IC50 (Histone deacetylase): 861.5 nM | IC50 [1]: 6560 nM

O=C(/C=C/c1cccc(OC[C@H](Cc2c[nH]c3ccccc23)NC(=O)Cc2ccccc2)c1)NO
IC50 (Histone deacetylase): 447.7 nM | IC50 [1]: 6570 nM

O=C(/C=C/c1cccc(OC[C@H](Cc2c[nH]c3ccccc23)NC(=O)CCc2ccccc2)c1)NO
IC50 (Histone deacetylase): 464.5 nM | IC50 [1]: 6170 nM

O=C(/C=C/c1cccc(OC[C@H](Cc2c[nH]c3ccccc23)NC(=O)CCCc2ccccc2)c1)NO
IC50 (Histone deacetylase): 498.6 nM | IC50 [1]: 3620 nM

O=C(/C=C/c1cccc(OC[C@H](Cc2c[nH]c3ccccc23)NC(=O)c2ccc(Br)cc2)c1)NO
IC50 (Histone deacetylase): 692.4 nM | IC50 [1]: 1390 nM

COc1ccc(C(=O)N[C@H](COc2cccc(/C=C/C(=O)NO)c2)Cc2c[nH]c3ccccc23)cc1
IC50 (Histone deacetylase 2): 865 nM | IC50 [2]: 93.8 nM | IC50 (Histone deacetylase 1): 219 nM | IC50 [3]: 2310 nM | Activity (Mus musculus [4]): Non-toxic | IC50 [5]: 1080 nM | IC50 (HEL): 380 nM | IC50 (Histone deacetylase): 191.2 nM | Activity (U-937 [6]): 11.54% | Activity (U-937 [7]): 35.53% | IC50 (K562): 3460 nM | IC50 [8]: 3700 nM | Activity (U-937 [9]): 23.99% | IC50 (MDA-MB-231): 970 nM | IC50 [10]: 3880 nM | IC50 (A549): 4500 nM | viability at 1.5 µM (U-937 [11]; Homo sapiens, U-937, 24 h, read-out: Activity): 57.5% | IC50 [12]: 360 nM | Activity (Mus musculus [13]): Non-toxic | IC50 (Histone deacetylase 3): 224 nM | IC50 (MCF7): 2490 nM | T/C [14]: 56.4% | IC50 [1]: 410 nM | Activity (U-937 [15]): 6.92% | Activity (Mus musculus [16]): Non-toxic | inhibition in vivo at 120 mg/kg/day [17]: 42.7%

Cc1ccc(C(=O)N[C@H](COc2cccc(/C=C/C(=O)NO)c2)Cc2c[nH]c3ccccc23)cc1
IC50 (Histone deacetylase): 218.7 nM | IC50 [1]: 390 nM

O=C(/C=C/c1cccc(OC[C@H](Cc2c[nH]c3ccccc23)NC(=O)c2ccccc2Cl)c1)NO
IC50 (Histone deacetylase): 81.9 nM | IC50 [1]: 740 nM

O=C(/C=C/c1cccc(OC[C@H](Cc2c[nH]c3ccccc23)NC(=O)c2cccc(Cl)c2)c1)NO
IC50 (Histone deacetylase): 357.9 nM | IC50 [1]: 3080 nM

O=C(/C=C/c1cccc(OC[C@H](Cc2c[nH]c3ccccc23)NC(=O)c2ccc(Cl)cc2Cl)c1)NO
IC50 (Histone deacetylase): 258.9 nM | IC50 [1]: 2500 nM

O=C(/C=C/c1cccc(OC[C@H](Cc2c[nH]c3ccccc23)NC(=O)c2cc(Cl)cc(Cl)c2)c1)NO
IC50 (Histone deacetylase): 779 nM | IC50 [1]: 3030 nM

COc1cccc(C(=O)N[C@H](COc2cccc(/C=C/C(=O)NO)c2)Cc2c[nH]c3ccccc23)c1
IC50 (Histone deacetylase): 67.4 nM | IC50 [1]: 3090 nM

COc1ccccc1C(=O)N[C@H](COc1cccc(/C=C/C(=O)NO)c1)Cc1c[nH]c2ccccc12
IC50 (Histone deacetylase 2): 64.8 nM | IC50 (Histone deacetylase 11): 52.7 nM | IC50 [2]: 23.9 nM | IC50 (Histone deacetylase 1): 33.2 nM | IC50 (Histone deacetylase 8): 87.4 nM | IC50 (Histone deacetylase): 38.5 nM | IC50 (Histone deacetylase 4): 440 nM | IC50 (Histone deacetylase 3): 28.7 nM | IC50 [1]: 1430 nM

O=C(CCCCCCC(=O)Nc1ccccc1)NO [VORINOSTAT]
Activity (U-937 [6]): 6.65% | Activity (U-937 [7]): 21.22% | Activity (U-937 [9]): 14.57% | IC50 [10]: 3570 nM | Activity (U-937 [11]): 72.62% | T/C [14]: 71.7% | Activity (U-937 [15]): 6.16%
